Experimental findings from patent US10745365B2, “Luminogenic and fluorogenic compounds and methods to detect molecules or conditions” (Promega Corporation, priority 2005, dated 2020) are described below.

Structures are written as SMILES. Several values for one entry are separate records, joined by “and”; a condition that tells them apart may be missing. Equal values may be shown once.

Data set [1] deals with T1, QuantiLum Luciferase (firefly luciferase) (Photinus pyralis, UniProt P08659).
T1 construct: purchased Promega Corporation El 70
As to the kind of experiment: Luminescence spectra of fluoroluciferins. It counts as biochemical. The conditions noted are these: pH 7.4. As to the method: All compounds except fluoroluciferin and ATP were purchased from Sigma Chemical. ATP was purchased from Amersham/Invitrogen.
Spectra were measured using 0.5s integration with 1 nm increments on a Spex Fluorolog.

Data set [2] has as its target T1, QuantiLum Luciferase (firefly luciferase). Nature of the data set: pH titration of 7′-fluoroluciferin luciferase reaction. The format is biochemical.
The target is the same in data set [3]. As to the kind of experiment: ATP titration of luciferase reactions with luciferin and fluoroluciferins. The format is biochemical. The method, then: AU compounds except 5’-fluoroluciferin and DTT were purchased from Sigma Chemical. To some of this reagent 5 mM ATP (Amersham/Invitrogen) was added, then serially diluted by half-logs to 0.05 mM. Reactions were initiated by adding equal volumes (0.1 ml) of reagent and DMEM medium (Gibco/Invitrogen) containing 0.1% Prionex® (Pentapharm) and 1.4×10-5 mg/ml QuantiLum™ Luciferase (Promega Corporation).
For ATP titrations for 7′-fluoroluciferin, reagent was created containing 200 mM HEPES, 200 mM PIPES, 1 mM CDTA, 0.5% Tergitol NP-9, 0.03% Benzyl dodecyldimethyl ammonium bromide, 30 mM thiourea, 10 mM magnesium sulfate, and 0.15 mM 7′-fluoroluciferin. This solution was separated into 3 parts and pH of the reagents were 7.4, 7.2 and 6.7. To some of this reagent, 10 mM ATP (Amersham/Invitrogen) was added. The ATP was serially diluted by quarter-logs from 10 mM to 0.32 mM.
Reactions were initiated by adding equal volumes (0.03 ml) of reagent and DMEM medium (Gibco/Invitrogen) containing 0.1% Prionex® (Pentapharm) and 1.4×10-5 mg/ml QuantiLum™ Luciferase (Promega Corporation).
Luminescence was measured for 0.5 seconds per well using Berthold Orion luminometer.

The target of data set [4] is T2, human recombinant flavin-containing monooxygenase 3 (FMO 3) (Homo sapiens, UniProt P31513).
T2 construct: purchased Sigma Chemical Company F-5053; host or cells: baculovirus infected insect cells (microsomes)
T2 sequence (P31513 1-532): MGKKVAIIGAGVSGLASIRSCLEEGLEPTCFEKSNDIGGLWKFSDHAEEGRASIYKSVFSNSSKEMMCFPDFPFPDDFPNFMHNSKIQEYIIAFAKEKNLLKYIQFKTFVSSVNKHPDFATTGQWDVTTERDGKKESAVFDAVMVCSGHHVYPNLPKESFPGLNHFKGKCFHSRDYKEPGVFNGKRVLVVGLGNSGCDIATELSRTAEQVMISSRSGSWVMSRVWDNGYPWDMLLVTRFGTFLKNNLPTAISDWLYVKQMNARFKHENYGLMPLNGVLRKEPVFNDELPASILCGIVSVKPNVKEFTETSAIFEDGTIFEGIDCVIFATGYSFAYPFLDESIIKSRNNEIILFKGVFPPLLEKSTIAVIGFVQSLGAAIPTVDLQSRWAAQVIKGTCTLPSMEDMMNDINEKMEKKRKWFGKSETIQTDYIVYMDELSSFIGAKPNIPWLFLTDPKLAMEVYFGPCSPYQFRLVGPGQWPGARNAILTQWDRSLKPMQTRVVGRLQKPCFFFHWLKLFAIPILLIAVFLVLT
Nature of the data set: Two-step luminescent FMO 3 assay. The format is biochemical. The conditions noted are these: fit of Table 33.

Data set [5] concerns the target T3, human recombinant monoamine oxidase A (MAO A) (Homo sapiens, UniProt P21397).
T3 sequence (P21397 1-527): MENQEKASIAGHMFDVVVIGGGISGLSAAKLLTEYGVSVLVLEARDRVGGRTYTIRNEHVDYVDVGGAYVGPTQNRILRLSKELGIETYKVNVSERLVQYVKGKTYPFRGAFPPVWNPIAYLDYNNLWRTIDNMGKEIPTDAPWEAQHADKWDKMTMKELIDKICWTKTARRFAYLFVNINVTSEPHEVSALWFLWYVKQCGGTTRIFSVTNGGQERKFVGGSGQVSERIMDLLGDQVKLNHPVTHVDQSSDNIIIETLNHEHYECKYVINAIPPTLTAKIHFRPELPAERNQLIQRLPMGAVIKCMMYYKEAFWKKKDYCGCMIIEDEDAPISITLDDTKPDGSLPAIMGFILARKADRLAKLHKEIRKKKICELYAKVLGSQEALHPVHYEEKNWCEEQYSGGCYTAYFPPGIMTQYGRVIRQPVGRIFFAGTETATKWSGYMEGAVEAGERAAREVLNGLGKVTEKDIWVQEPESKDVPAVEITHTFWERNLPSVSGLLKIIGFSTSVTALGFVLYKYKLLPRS
Nature of the data set: Two-step bioluminogenic MAO A substrate assay.

Data set [6] is described as follows: Control without MAO: fluorescence of the fluorogenic derivative (MAO substituted with H2O). As to the method: The fluorescent signal was then measured (excitation/emission=355/460 nm) on a Fluoroskan Ascent plate fluorometer.
This 90 μl contained 35 μl 200 mM Tricine pH 8.3, 35 μl 200 mM Tricine pH 8.7 (or water), 10 μl 200 mM MgSO4, and 10 μl of each substrate dilution.

In data set [7] the target is T4, equine alcohol dehydrogenase (Equus caballus, UniProt P00327).
T4 construct: purchased Sigma Chem. Co. A9589
As to the kind of experiment: Effect of inhibitors on the conversion of luciferol by equine alcohol dehydrogenase. The settings on record: luciferol + equine ADH + NAD+ with 10 μl inhibitor solution, 37° C., 30 min; duplicates #1, #2 (controls 1023, 1087). The format is biochemical. The method, then: Trichloroethanol solution: A 0.48 ml sample of 2,2,2, trichloroethanol (Aldrich T5480-5) was dissolved in water.
Reactions were initiated by addition of 1.5 μl of luciferol solution. Upon addition of the luciferol solution, the reactions were mixed and placed at 37° C.

A further data set deals with CYP2C19 (Homo sapiens, UniProt P33261). As to the kind of experiment: biochemical.
Data set [8] concerns human hepatocytes (CYP3A activity).
Data set [9] concerns the target T5, human recombinant monoamine oxidase B (MAO B) (Homo sapiens, UniProt P27338).
T5 construct: purchased Sigma Chemical Company M-7441; host or cells: baculovirus infected insect cells (microsomes)
T5 sequence (P27338 1-520): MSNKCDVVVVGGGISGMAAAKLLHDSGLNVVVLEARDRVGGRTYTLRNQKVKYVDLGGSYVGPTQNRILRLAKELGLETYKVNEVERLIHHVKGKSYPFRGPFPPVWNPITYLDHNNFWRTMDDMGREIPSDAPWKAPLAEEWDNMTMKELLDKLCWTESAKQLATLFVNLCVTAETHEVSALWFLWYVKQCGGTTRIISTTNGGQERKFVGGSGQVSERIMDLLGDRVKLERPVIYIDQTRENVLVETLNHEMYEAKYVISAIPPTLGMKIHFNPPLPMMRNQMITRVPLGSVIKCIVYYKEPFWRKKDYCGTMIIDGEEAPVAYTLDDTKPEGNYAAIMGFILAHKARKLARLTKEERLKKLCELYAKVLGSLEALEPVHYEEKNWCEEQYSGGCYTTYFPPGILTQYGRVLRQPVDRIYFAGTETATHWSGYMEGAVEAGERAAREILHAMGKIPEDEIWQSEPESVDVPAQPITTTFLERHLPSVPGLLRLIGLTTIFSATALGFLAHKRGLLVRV
As to the kind of experiment: biochemical.

Data set [10] addresses T3, human recombinant monoamine oxidase A (MAO A). Nature of the data set: MAO A inhibition (IC50) with substrate MAO-11. It counts as biochemical. Also noted: purchased Sigma Chemical Company M-7316; host or cells: baculovirus infected insect cells (microsomes).

T1 sequence (P08659 whole entry): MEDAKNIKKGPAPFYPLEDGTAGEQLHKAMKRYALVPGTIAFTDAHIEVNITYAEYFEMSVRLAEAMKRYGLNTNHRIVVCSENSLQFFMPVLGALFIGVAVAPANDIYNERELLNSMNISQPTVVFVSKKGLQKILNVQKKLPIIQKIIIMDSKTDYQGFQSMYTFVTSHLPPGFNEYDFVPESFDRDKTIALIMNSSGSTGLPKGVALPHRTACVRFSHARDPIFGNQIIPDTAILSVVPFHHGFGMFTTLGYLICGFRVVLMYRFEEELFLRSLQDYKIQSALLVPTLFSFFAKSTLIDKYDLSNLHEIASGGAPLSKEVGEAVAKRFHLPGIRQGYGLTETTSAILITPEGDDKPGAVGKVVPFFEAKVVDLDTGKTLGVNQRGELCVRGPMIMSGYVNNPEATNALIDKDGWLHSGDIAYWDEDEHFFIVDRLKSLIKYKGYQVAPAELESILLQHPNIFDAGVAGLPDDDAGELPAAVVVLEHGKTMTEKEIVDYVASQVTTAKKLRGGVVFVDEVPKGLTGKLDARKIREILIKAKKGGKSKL
T4 sequence (P00327 whole entry): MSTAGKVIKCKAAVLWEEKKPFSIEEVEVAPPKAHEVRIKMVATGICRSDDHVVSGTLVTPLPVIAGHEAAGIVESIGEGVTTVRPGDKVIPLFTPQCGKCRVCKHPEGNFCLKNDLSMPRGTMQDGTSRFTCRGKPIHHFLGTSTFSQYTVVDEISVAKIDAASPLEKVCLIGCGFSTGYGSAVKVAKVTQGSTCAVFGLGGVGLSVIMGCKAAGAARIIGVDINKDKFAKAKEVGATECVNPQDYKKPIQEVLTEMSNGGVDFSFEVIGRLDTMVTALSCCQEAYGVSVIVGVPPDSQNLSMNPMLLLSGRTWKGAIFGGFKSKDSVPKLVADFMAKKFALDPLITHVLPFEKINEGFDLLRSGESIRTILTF
Chain of CYP2C19 (P33261 whole entry): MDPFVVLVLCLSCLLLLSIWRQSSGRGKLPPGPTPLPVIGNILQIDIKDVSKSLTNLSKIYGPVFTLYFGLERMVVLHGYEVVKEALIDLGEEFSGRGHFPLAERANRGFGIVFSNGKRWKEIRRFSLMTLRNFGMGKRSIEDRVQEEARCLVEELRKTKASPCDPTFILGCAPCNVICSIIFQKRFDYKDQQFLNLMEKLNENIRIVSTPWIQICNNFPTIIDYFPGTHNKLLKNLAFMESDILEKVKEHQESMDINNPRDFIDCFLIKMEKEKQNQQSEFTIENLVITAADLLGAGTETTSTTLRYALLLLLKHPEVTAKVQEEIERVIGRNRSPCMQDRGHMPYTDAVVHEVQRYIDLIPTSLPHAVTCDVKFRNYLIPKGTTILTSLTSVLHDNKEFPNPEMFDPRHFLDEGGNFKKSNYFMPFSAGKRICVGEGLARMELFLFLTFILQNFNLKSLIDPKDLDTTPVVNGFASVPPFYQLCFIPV

On to `O=C(O)[C@H]1CSC(c2nc3ccc(O)c(F)c3s2)=N1` [7′-fluoroluciferin], for which the “red shift of luminescence λmax from regular luciferin” value in [1] is “approximately 21 nm”. Besides, in data set [2], the “pH optima of firefly luciferase reaction” value is about 7.5. Moreover, in [3], the “ATP requirement of luciferase reaction” value is “requirement for ATP is much higher”.
`CNCCCOc1ccc2nc(C3=N[C@@H](C(=O)O)CS3)ccc2c1` [MAO-7, 6-(3-methylaminopropoxy)quinolinyl-luciferin]: the entries for the “signal-to-background ratio at the Km value” in data set [4] and in data set [5] (fit of Table 22) were “about 8.5” and “about 95”, respectively. Also, the “MAO specificity by ratio RLUmax/Km” value in data set [5] (Table 25) is “more specific substrate for MAO A”.
For `CNCCCOc1ccc2c(C)cc(=O)oc2c1` [MAO-F3, 7-(4-methyl-3-N-methylaminopropoxy)coumarin], the “no MAO fluorescent signal” value worked out at 48 in data set [6] ([MAO-F3] 0.21 μM) and 6461 in [6] ([MAO-F3] 863.75 μM).
On to `c1cn[nH]c1` [Pyrazol, pyrazol], for which the “Relative Light Units” value in data set [7] is 516.4 Relative Light Units and 490.7 Relative Light Units.
By IC50 is commonly meant the concentration that gives 50% inhibition. For `NNC(=O)c1ccncc1` [isoniazid], on CYP2C19, it took 76 µM to reach half-maximal inhibition (IC50).
For `CC(=O)N1CCN(c2ccc(OCC3COC(Cn4ccnc4)(c4ccc(Cl)cc4Cl)O3)cc2)CC1` (stereo not shown) [ketoconazole], the “CYP3A-dependent luminescence in hepatocytes” value in data set [8] is “inhibition by ketoconazole of both basal and rifampicin-induced activity”.
As to `NCCc1ccccc1` [phenethylamine], the IC50 is 20 ± 2 µM in [9] and 134 ± 9 µM in data set [10].
